# According to ChEMBL document CHEMBL1201862, “PubChem BioAssay data set” (2004):
#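 The compound was tested at five concentrations on cells cultured in 96-well plates, with a 48-hour exposure period. Here, GI50 denotes the concentration required for 50% inhibition of growth.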 Calls of active or inactive are those of the source. Cut-off read from the data, not from the text of the source: active = GI50 up to about 1.1 µM and inactive = higher.
# How the values were obtained:
# Experiment in all cases: inhibition of tumour cell growth, NCI panel, 48 h
# [1] = system: SK-MEL-2
# [2] = system: HCT-15
# [3] = system: K562
# [4] = system: SW-620
# [5] = system: M14
# [6] = system: HT-29
# [7] = system: UACC-62
# [8] = system: CAKI-1
# [9] = system: NCI-H460
# [10] = system: HCT-116
# [11] = system: NCI-H226
# [12] = system: MOLT-4
# [13] = system: IGROV-1
# [14] = system: UO-31
# [15] = system: BT-549
# [16] = system: NCI-H23
# [17] = system: CCRF-CEM
# [18] = system: HCC 2998
SMILES,GI50 [1],GI50 [2] [µM],GI50 [3],GI50 [4],GI50 [5],GI50 [6],GI50 [7],GI50 [8],GI50 [9],GI50 [10],GI50 [11],GI50 [12],GI50 [13],GI50 [14],GI50 [15],GI50 [16],GI50 [17],GI50 [18]
COc1ccc2nc(-c3ccc(O)cc3)sc2c1,43.4 µM (inactive),17.9,36.2 µM (inactive),21.8 µM (inactive),22.7 µM (inactive),20 µM (inactive),21.7 µM (inactive),29.3 µM (inactive),39.3 µM (inactive),17.5 µM (inactive),23.5 µM (inactive),27.9 µM (inactive),19.1 µM (inactive),16.1 µM (inactive),18.7 µM (inactive),20.8 µM (inactive),,
O=C1C=CC[C@H]2O[C@@H](COC(=O)Cc3ccccc3)C[C@H]2O1,51.5 µM (inactive),18.4,55.6 µM (inactive),24 µM (inactive),31.7 µM (inactive),25.5 µM (inactive),41.9 µM (inactive),38.5 µM (inactive),31.9 µM (inactive),,35.4 µM (inactive),25.4 µM (inactive),20 µM (inactive),32 µM (inactive),,20.9 µM (inactive),41.4 µM (inactive),
CC(C)(C)OC(=O)CCC1NC(=O)[C@@H]2Cc3c([nH]c4ccccc34)C(c3ccccc3)N2C1=O (stereo partly specified),21 µM (inactive),33,> 100 µM (inactive),41.7 µM (inactive),25.9 µM (inactive),22.8 µM (inactive),17.7 µM (inactive),29.2 µM (inactive),,19.4 µM (inactive),30.4 µM (inactive),> 100 µM (inactive),31.3 µM (inactive),29.4 µM (inactive),28.6 µM (inactive),29.1 µM (inactive),,
CCOC1Oc2ccccc2-c2nc(N)ncc21 (stereo unspecified),> 100 µM (inactive),14,,46.3 µM (inactive),56.8 µM (inactive),34.8 µM (inactive),29.1 µM (inactive),30.6 µM (inactive),24.9 µM (inactive),36.5 µM (inactive),61.9 µM (inactive),52.5 µM (inactive),43.6 µM (inactive),43.5 µM (inactive),31.3 µM (inactive),> 100 µM (inactive),36.8 µM (inactive),
O=C1OC(c2ccccc2)=N/C1=C\c1cn[nH]n1,> 100 µM (inactive),> 100,> 100 µM (inactive),> 100 µM (inactive),> 100 µM (inactive),> 100 µM (inactive),> 100 µM (inactive),> 100 µM (inactive),> 100 µM (inactive),> 100 µM (inactive),> 100 µM (inactive),> 100 µM (inactive),> 100 µM (inactive),> 100 µM (inactive),,> 100 µM (inactive),97.1 µM (inactive),> 100 µM (inactive)
N#C/C(=C/NC(=S)NCc1ccccc1)C(N)=O,> 100 µM (inactive),> 100,> 100 µM (inactive),> 100 µM (inactive),> 100 µM (inactive),> 100 µM (inactive),> 100 µM (inactive),> 100 µM (inactive),> 100 µM (inactive),> 100 µM (inactive),> 100 µM (inactive),> 100 µM (inactive),> 100 µM (inactive),50.1 µM (inactive),,> 100 µM (inactive),> 100 µM (inactive),> 100 µM (inactive)
O[C@@H]1CCC[C@@H]2NC[C@@H](c3ccc4c(c3)OCO4)[C@H]12,> 100 µM (inactive),> 100,> 100 µM (inactive),> 100 µM (inactive),> 100 µM (inactive),> 100 µM (inactive),> 100 µM (inactive),> 100 µM (inactive),> 100 µM (inactive),,> 100 µM (inactive),> 100 µM (inactive),> 100 µM (inactive),> 100 µM (inactive),,> 100 µM (inactive),> 100 µM (inactive),> 100 µM (inactive)
COC(=O)C1(CCCCCBr)CCCCCCCCCCC1=O (stereo unspecified),28.9 µM (inactive),38.8,32.9 µM (inactive),72.4 µM (inactive),40.2 µM (inactive),42.2 µM (inactive),79.6 µM (inactive),25.5 µM (inactive),58.6 µM (inactive),26.4 µM (inactive),23.6 µM (inactive),17.9 µM (inactive),30.5 µM (inactive),16.7 µM (inactive),,45.9 µM (inactive),22.6 µM (inactive),41.1 µM (inactive)
COC(=N)c1ncn(Cc2ccccc2)c1N,> 100 µM (inactive),> 100,> 100 µM (inactive),> 100 µM (inactive),> 100 µM (inactive),> 100 µM (inactive),> 100 µM (inactive),> 100 µM (inactive),> 100 µM (inactive),> 100 µM (inactive),> 100 µM (inactive),,> 100 µM (inactive),,,> 100 µM (inactive),> 100 µM (inactive),> 100 µM (inactive)
CCC1(C)N=c2c(ncn2N=C(C)C)=C(C(N)=O)N1 (stereo unspecified),,> 100,> 100 µM (inactive),> 100 µM (inactive),> 100 µM (inactive),> 100 µM (inactive),> 100 µM (inactive),> 100 µM (inactive),> 100 µM (inactive),> 100 µM (inactive),> 100 µM (inactive),,> 100 µM (inactive),,,> 100 µM (inactive),> 100 µM (inactive),> 100 µM (inactive)
CC[C@]1(Cc2ccc(OC)c(OC)c2)C=[N+]([O-])O[C@H](OCc2ccccc2)[C@@H]1OC(C)=O,23 µM (inactive),29.8,20.9 µM (inactive),32.8 µM (inactive),33.5 µM (inactive),29.5 µM (inactive),26.2 µM (inactive),24.8 µM (inactive),31 µM (inactive),,19.3 µM (inactive),6.34 µM (inactive),25.1 µM (inactive),32.1 µM (inactive),,34.9 µM (inactive),19.6 µM (inactive),45.7 µM (inactive)
COc1ccc2c3c1OC1C(OC)(OC)C=C[C@@]4(Br)[C@@H](C2)N(CC2CC2)CC[C@]314 (stereo partly specified),38.5 µM (inactive),> 100,52.8 µM (inactive),33.7 µM (inactive),27.1 µM (inactive),61.9 µM (inactive),68.5 µM (inactive),59 µM (inactive),62.7 µM (inactive),44 µM (inactive),58.5 µM (inactive),80.7 µM (inactive),62.2 µM (inactive),35.2 µM (inactive),,71.3 µM (inactive),86.9 µM (inactive),> 100 µM (inactive)
CSCCCCCCCCCCOc1ccc(C=C2C(=C(C#N)C#N)c3ccccc3C2=C(C#N)C#N)cc1,20.1 µM (inactive),23.1,30.6 µM (inactive),17.8 µM (inactive),17.9 µM (inactive),17.3 µM (inactive),,17.1 µM (inactive),17.7 µM (inactive),16.9 µM (inactive),30.4 µM (inactive),19.2 µM (inactive),17.3 µM (inactive),16.3 µM (inactive),,22.1 µM (inactive),1.32 µM (inactive),
